Results on two compounds are retold here after patent publication US20140162942A1, “INHIBITION OF CYP3A DRUG METABOLISM” (priority 2010, published 2014).

Structures are written as SMILES.

Data set [1] has as its target HCV NS3 serine protease (Hepatitis C virus genotype 1a, UniProt P27958). As to conditions: as described in WO2005/015579; cited from earlier work.
Data set [2] concerns CYP3A4/5. Nature of the data set: Clinical study: effect of boceprevir on the pharmacokinetic profile of midazolam in healthy adult subjects. The following applies: for AUC(0-t) / Cmax / Tmax: both, human, in vivo, 4 mg; for Tmax: MDZ Tmax. Here is the method:
A clinical study was conducted to determine the effects of boceprevir on the pharmacokinetic (PK) profile of midazolam (MDZ) to assess the ability of boceprevir to inhibit CYP3A4/5 in vivo by monitoring its effect on the metabolism of MDZ, a sensitive CYP3A4/5 substrate.
This study was conducted in healthy adult subjects (seven male and five female subjects), at a single center, in conformance with Good Clinical Practices. The study used a fixed-sequence design ([…]). The PK profile of MDZ and its metabolite (1-hydroxy midazolam [1-0H-MDZ)) was determined when MDZ was administered alone and compared with the PK profile after co-administration of boceprevir as well as following a washout period of 7 days after boceprevir administration.
Boceprevir (BOC) 800 mg was administered as 4×200 mg capsules. MDZ 4 mg was administered as a single dose of an oral solution.
Day 1: MDZ 4 mg (oral solution, single dose)
Days 1 to 5: Boceprevir 800 mg (4×200 mg capsules) TID
Day 6: MDZ 4 mg (oral solution, single dose) and boceprevir 800 mg (4×200 mg capsules) TID Days 8 and 13: MDZ 4 mg (oral solution, single dose)
Blood samples for PK analyses were collected: for MDZ and 1-0H-MDZ: Days −1, 6, 8, and 13: predose (Ohr) and at 0.5, 1, 2, 3, 4, 8, 12, and 24 hours postdose for boceprevir: predose (Ohr) on Day 4 and Day 5 and on Day 6: predose (Ohr), and at 0.5, 1, 2, 3, 4, 6, and 8 hr postdose. The 8 hour sample was to be collected prior to the administration of the next dose of Boceprevir.

Sequence of HCV NS3 serine protease (P27958 1658-1711): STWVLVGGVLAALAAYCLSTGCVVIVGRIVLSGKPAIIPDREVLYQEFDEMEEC
Sequence of HCV NS3 serine protease (P27958 1027-1657): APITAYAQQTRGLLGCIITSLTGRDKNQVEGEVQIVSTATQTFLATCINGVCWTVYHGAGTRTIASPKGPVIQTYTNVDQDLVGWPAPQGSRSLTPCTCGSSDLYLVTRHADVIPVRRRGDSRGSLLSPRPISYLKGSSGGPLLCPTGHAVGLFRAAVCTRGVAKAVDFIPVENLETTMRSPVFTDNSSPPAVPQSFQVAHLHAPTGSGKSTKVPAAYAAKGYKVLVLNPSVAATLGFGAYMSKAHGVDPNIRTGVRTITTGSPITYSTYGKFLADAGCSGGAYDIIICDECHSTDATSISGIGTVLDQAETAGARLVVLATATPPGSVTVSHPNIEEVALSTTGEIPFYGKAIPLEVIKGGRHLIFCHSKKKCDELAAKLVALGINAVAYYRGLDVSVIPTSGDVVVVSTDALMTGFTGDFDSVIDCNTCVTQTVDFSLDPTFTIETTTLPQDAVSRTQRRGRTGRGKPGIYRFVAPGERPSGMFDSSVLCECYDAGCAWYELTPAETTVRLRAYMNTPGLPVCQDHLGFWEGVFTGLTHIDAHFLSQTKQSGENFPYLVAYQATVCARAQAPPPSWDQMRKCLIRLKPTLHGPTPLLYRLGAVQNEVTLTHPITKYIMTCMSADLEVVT

For `CC(C)(C)NC(=O)N[C@H](C(=O)N1C[C@H]2[C@@H]([C@H]1C(=O)N[C@@H](CC1CCC1)C(=O)C(N)=O)C2(C)C)C(C)(C)C` [Formula 1b, (1R,2S,5S)—N-[(1S)-3-amino-1-(cyclobutylmethyl)-2,3-dioxopropyl]-3-[(2S)-2[[[(1,1-dimethylethyl)amino]carbonyl]amino]-3,3-dimethyl-1-oxobutyl]-6,6-dimethyl-3-azabicyclo[3.1.0]hexane-2-carboxamide], the “in vitro HCV NS3 serine protease inhibitory activity compared with the compound of Formula 1c” value in data set [1] was “significantly higher”.

Consider `Cc1ncc2n1-c1ccc(Cl)cc1C(c1ccccc1F)=NC2` [MDZ, midazolam], for which, in data set [2] (48 hours post last administration of boceprevir), the “Plasma concentrations of MDZ, return to baseline after boceprevir” value is listed as “returned to baseline values by Day 8”. The AUC(0-t) stood at 56.1 ng·h/mL in data set [2] (MDZ AUC (0-24 hr) LS Mean, MDZ Alone (Day 8)); 43.8 ng·h/mL in data set [2] (MDZ AUC (0-24 hr) LS Mean, MDZ Alone (Day 13)); 52.9 ng·h/mL in data set [2] (MDZ AUC (0-24 hr) LS Mean, MDZ Alone (Day-1)); 59.2 ng·h/mL in data set [2] (MDZ AUC(0-24 hr), MDZ Alone (Day 8), after boceprevir); 45.4 ng·h/mL in data set [2] (MDZ AUC(0-24 hr), MDZ Alone (Day 13), after boceprevir); 56.4 ng·h/mL in data set [2] (po, MDZ AUC(0-24 hr), MDZ Alone (Day-1), MDZ 4 mg oral, n = 12). The Cmax in data set [2] (MDZ Cmax LS Mean, MDZ Alone (Day 8)) worked out at 9.82 ng/mL; in data set [2] (MDZ Cmax LS Mean, MDZ Alone (Day 13)) it was 8.94 ng/mL; in data set [2] (MDZ Cmax LS Mean, MDZ Alone (Day-1)) it was 9.96 ng/mL; in data set [2] (MDZ Cmax, MDZ Alone (Day 8), after boceprevir) it was 10.3 ng/mL; in data set [2] (MDZ Cmax, MDZ Alone (Day 13), after boceprevir), 9.15 ng/mL; in data set [2] (po, MDZ Cmax, MDZ Alone (Day-1), MDZ 4 mg oral, n = 12) it was 10.3 ng/mL. Further, the Tmax in data set [2] (MDZ Alone (Day 8), after boceprevir) is 2 h; in data set [2] (MDZ Alone (Day 13), after boceprevir) it was 1 h; in data set [2] (po, MDZ Alone (Day-1), MDZ 4 mg oral, n = 12), 2 h.
